In publication PMC12044458 (ACS Omega, 2025):
One block for each molecule: values may come before it.

Experiments:
[1] = system: Poly(I:C) Na^+ (RNA, polymer, hypoxanthine (inosine) in place of every G of strand 1 (polyinosinic acid)) G/C; experiment: UV melting; settings: PBS, 0 mM Mg2+, compound concentration not in material, per base
[2] = system: Poly(I:C) Na^+ γ (RNA, polymer, hypoxanthine (inosine) in place of every G of strand 1 (polyinosinic acid); gamma-irradiated, possible strand breaks) G/C; experiment: fluorescence titration of compound emission; settings: PBS, 0 mM Mg2+, <1% DMSO, 5 µM compound, per base pair
[3] = system: Poly(I:C) Na^+ (RNA, polymer, hypoxanthine (inosine) in place of every G of strand 1 (polyinosinic acid)) G/C; experiment: fluorescence titration of compound emission; settings: PBS, <1% DMSO, 5 µM compound, per base pair
[4] = system: Poly(I:C) HMW (RNA, polymer, hypoxanthine (inosine) in place of every G of strand 1 (polyinosinic acid)) G/C; experiment: UV melting; settings: PBS, 0 mM Mg2+, compound concentration not in material, per base
[5] = system: Poly(I:C) HMW fluorescein (RNA, polymer, hypoxanthine (inosine) in place of every G of strand 1 (polyinosinic acid)) G/C; experiment: microscale thermophoresis; settings: PBS-T, PBS-T pH 7.4, 200 nM labelled Poly(I:C)
[6] = system: Poly(I:C) HMW (RNA, polymer, hypoxanthine (inosine) in place of every G of strand 1 (polyinosinic acid)) G/C; experiment: fluorescence titration of compound emission; settings: PBS, 0 mM Mg2+, <1% DMSO, 5 µM compound, per base pair
human RNase [7] = molecular target: T1, human RNase; experiment: microscale thermophoresis (MST); format: binding
T1 construct: his-tag-labeled human RNase

human RNase [8] = molecular target: T1, human RNase; experiment: microscale thermophoresis (MST), two-site fit; Kd2 =[…]; format: binding
[9] = system: Poly(I:C) HMW (RNA, polymer, hypoxanthine (inosine) in place of every G of strand 1 (polyinosinic acid)) G/C; experiment: circular dichroism; settings: PBS, 0 mM Mg2+, 100 µM compound and 100 µM Poly(I:C)
human RNase [10] = molecular target: T1, human RNase; experiment: microscale thermophoresis (MST), two-site fit; Kd2 =[…]; format: binding; remark: listed apart in the source
[11] = 540 nm, 1:1 model, conditional constant, per base
[12] = 540 nm, 1:2 model, not a 1:1 Ka
[13] = derived from two Tm (65 and 65)
[14] = 595 nm, 1:1 model, conditional constant, per base
[15] = 595 nm, 1:2 model, not a 1:1 Ka
[16] = derived from two Tm (66 and 67)

- melting temperature shift (ΔTm) ([1]; derived from two Tm (64 and 65)): -1 °C
- Log(K) [2, 11]: 4.14 ± 0.57
- Log(K) [2, 12]: 10.39 ± 1.8
- Log(K) ([3]; 0 mM Mg2+, 540 nm, 1:2 model, not a 1:1 Ka): 9.85 ± 0.99
- Log(K) ([3]; 10 mM Mg2+ (MgSO4), 537 nm, 1:1 model, conditional constant, per base): 5.39 ± 0.96
- melting temperature shift (ΔTm) ([4]; derived from two Tm (67 and 67)): 0 °C
- Kd ([5]; ligand stock 1 mM): 366.2 ± 74.9 µM
- Log(K) [6, 11]: 4.62 ± 0.3
- Log(K) [6, 12]: 11.34 ± 1.81
Structure (SMILES): C[C@H]1c2cccc(O)c2C(O)=C2C(=O)[C@]3(O)C(O)=C(C(N)=O)C(=O)[C@@H](N(C)C)[C@@H]3[C@@H](O)[C@@H]21

Structure (SMILES): COc1cccc2c1C(=O)c1c(O)c3c(c(O)c1C2=O)C[C@@](O)(C(=O)CO)C[C@@H]3O[C@H]1C[C@H](N)[C@H](O)[C@H](C)O1 [doxorubicin]
- Kd (human RNase [7]): 4.8 ± 2 µM
- melting temperature shift (ΔTm) [1, 13]: 0 °C
- Log(K) [2, 14]: 4.50 ± 0.72
- Log(K) [2, 15]: 10.13 ± 1.23
- Log(K) ([3]; 0 mM Mg2+, 595 nm, 1:1 model, conditional constant, per base): 5.03 ± 0.75
- Log(K) ([3]; 0 mM Mg2+, 595 nm, 1:2 model, not a 1:1 Ka): 10.69 ± 1.14
- melting temperature shift (ΔTm) [4, 16]: -1 °C
- Kd ([5]; ligand stock 0.25 mM, Kd above tested range): 251 ± 22 µM
- Log(K) [6, 14]: 5.21 ± 0.75
- Log(K) [6, 15]: 11.23 ± 1.10

Structure (SMILES): C[C@H]1c2cccc(O)c2C(=O)C2=C(O)[C@]3(O)C(=O)C(C(N)=O)=C(O)[C@@H](N(C)C)[C@@H]3[C@@H](O)[C@@H]21 [doxycycline]
- Kd (human RNase [8]): 0.149 ± 0.052 µM

Structure (SMILES): CN(C)[C@@H]1C(=O)C(C(N)=O)=C(O)[C@@]2(O)C(=O)C3=C(O)c4c(O)cccc4[C@@](C)(O)[C@H]3C[C@@H]12
- Log(K) ([2]; 505 nm, 1:1 model, conditional constant, per base): 4.37 ± 0.56
- Log(K) ([2]; 505 nm, 1:2 model, not a 1:1 Ka): 9.57 ± 0.71
- Log(K) ([3]; 0 mM Mg2+, 549 nm, 1:1 model, conditional constant, per base): 4.64 ± 0.96
- Log(K) ([3]; 0 mM Mg2+, 549 nm, 1:2 model, not a 1:1 Ka): 11.18 ± 0.99
- Kd ([5]; ligand stock 1 mM): 448.1 ± 86.4 µM
- Log(K) ([6]; 549 nm, 1:1 model, conditional constant, per base): 5.02 ± 1.05
- Log(K) ([6]; 549 nm, 1:2 model, not a 1:1 Ka): 11.70 ± 1.37

Structure (SMILES): CN(C)c1ccc(O)c2c1C[C@H]1C[C@H]3[C@H](N(C)C)C(O)=C(C(N)=O)C(=O)[C@@]3(O)C(O)=C1C2=O [minocycline]
- melting temperature shift (ΔTm) [1, 13]: 0 °C
- melting temperature shift (ΔTm) [4, 16]: -1 °C
- binding [9]: yes
- Kd (human RNase [10]): 0.509 ± 0.118 µM

Structure (SMILES): CN(C)[C@@H]1C(O)=C(C(N)=O)C(=O)[C@@]2(O)C(O)=C3C(=O)c4c(O)cccc4[C@@](C)(O)[C@H]3C[C@@H]12 [tetracycline]
- Kd (human RNase [7]): 24.5 µM
